A word on the IC50: it is the concentration that inhibits the measured activity by half. High values mean lower potency, low ones higher potency.

For two molecules, GI50 and IC50 results are on record in patent US9388123B2, “LSD1-selective inhibitor having lysine structure” (KYOTO UNIVERSITY, priority 2012, dated 2016).

Molecules are shown by their SMILES. Counter-ions that a name gives are not always drawn.

For one assay, the system named is KG1a. Kind of assay: Leukemia cell growth inhibition evaluation (WST-8). In kind it is cell-based. The settings on record: Homo sapiens, KG-1a; day 3 (72-hour culture); read-out: Human leukemia cell line GI50 (μM) KG1a. An excerpt: (§1) HL60, THP-1, K562, U937, KGla, HEL, and MDS-L were used as human leukemia cells. The cell lines are cell lines established from various subtypes such as acute myeloid leukemia, acute promyelocytic leukemia, acute monocytic leukemia, acute erythroid leukemia, and myelodysplastic syndromes, which progress to leukemia. Cells obtained by introducing leukemia fusion genes MLL/AF9, MLL/SEPT6, and MLL/ENL into the bone marrow of normal mice with a retrovirus so as to develop leukemia were used as murine leukemia cell lines.
(§2) This assay method involves, as a principle thereof, measuring an absorbance (a peak at from 450 nm to 490 nm) at the time of color development through a reaction of NADH, which is contained in the mitochondria of viable cells, and WST-8 to measure the amount of NADH. Specifically, the assay was performed by the following procedure.
(§3) The cells were plated at 50 μl, i.e., 5,000 cells per well in a 96-well microtiter plate. Next, a test compound dissolved in DMSO was mixed at various concentrations into the same medium, and 50 μl of each of the mixtures was added to each well. A medium was prepared so that the final concentration of the test compound was from 0 μM to 50 μM and so that the addition amount of DMSO was the same, and the cells were cultured in a CO2 incubator. On day 0 before the addition and on day 1, day 2, and day 3 after the addition, WST-8 reagent was added at 20 μl per well, and the cells were cultured for 1 hour in a CO2 incubator. After that, measurement was performed with ARVO X3 (manufactured by PerkinElmer).
(§4) Specifically, an absorbance at 450 nm was measured, an absorbance at 595 nm was measured in the same well, and the absorbance at 595 nm was subtracted from the absorbance at 450 nm to perform background correction for the well itself. Further, a well containing only a medium free of cells was subjected to the same measurement. A value in this case was also subtracted. Thus, the amount of viable cells was represented as a numerical value with correction of the influence of a medicament or a medium as well. Under a condition not containing the test compound (addition of only dimethyl sulfoxide), an exponential increase in number of viable cells on day 1, day 2, and day 3 in the stated order was confirmed.
(In general: Tetrazolium dyes change colour on reduction, which living cells bring about.)

Another assay relates to HL60. Kind of assay: Leukemia cell growth inhibition evaluation (WST-8). Type of assay: cell-based. The settings on record: Homo sapiens, HL-60; day 3 (72-hour culture); read-out: Human leukemia cell line GI50 (μM) HL60.
Text: as §1, §2, §3, §4

Assay [1] deals with MLL/SEPT6 leukemia cell line. As to the kind of experiment: Leukemia cell growth inhibition evaluation (WST-8). The settings on record: Mus musculus; day 3 (72-hour culture); read-out: Mouse MLL-fusion leukemia cell line GI50 (μM) MLL/SEPT6. In kind it is cell-based.
Text: as §1, §2, §3, §4

A further assay deals with MDS-L. Kind of assay: Leukemia cell growth inhibition evaluation (WST-8). In kind it is cell-based. The settings on record: Homo sapiens; day 3 (72-hour culture); read-out: Human leukemia cell line GI50 (μM) MDS-L.
Text: as §1, §2, §3, §4

For another assay, the system named is K562. Kind of assay: Leukemia cell growth inhibition evaluation (WST-8). The settings on record: Homo sapiens, day 3 (72-hour culture), read-out: Human leukemia cell line GI50 (μM) K562. Type of assay: cell-based.
Text: as §1, §2, §3, §4

The subject of a further assay is M7. Kind of assay: Leukemia cell growth inhibition evaluation (WST-8). In kind it is cell-based. The settings on record: Homo sapiens; day 3 (72-hour culture); read-out: Human leukemia cell line GI50 (μM) M7.
Text: as §1, §2, §3, §4

Another assay concerns HEL. As to the kind of experiment: Leukemia cell growth inhibition evaluation (WST-8). In kind it is cell-based. The settings on record: Homo sapiens, day 3 (72-hour culture), read-out: Human leukemia cell line GI50 (μM) HEL.
Text: as §1, §2, §3, §4

The test system of assay [2] is MLL/AF9 leukemia cell line. As to the kind of experiment: Leukemia cell growth inhibition evaluation (WST-8). Type of assay: cell-based. The settings on record: Mus musculus, day 3 (72-hour culture), read-out: Mouse MLL-fusion leukemia cell line GI50 (μM) MLL/AF9.
Text: as §1, §2, §3, §4

In another assay the test system is U937. Kind of assay: Leukemia cell growth inhibition evaluation (WST-8). Type of assay: cell-based. The settings on record: Homo sapiens, U-937; day 3 (72-hour culture); read-out: Human leukemia cell line GI50 (μM) U937.
Text: as §1, §2, §3, §4

A further assay relates to THP1. Kind of assay: Leukemia cell growth inhibition evaluation (WST-8). In kind it is cell-based. The settings on record: Homo sapiens, THP-1; day 3 (72-hour culture); read-out: Human leukemia cell line GI50 (μM) THP1.
Text: as §1, §2, §3, §4

For assay [3], the target named is T1, monoamine oxidase B (MAO-B) (Homo sapiens, UniProt P27338).
T1 construct: purchased Sigma-Aldrich
T1 sequence (P27338 1-520): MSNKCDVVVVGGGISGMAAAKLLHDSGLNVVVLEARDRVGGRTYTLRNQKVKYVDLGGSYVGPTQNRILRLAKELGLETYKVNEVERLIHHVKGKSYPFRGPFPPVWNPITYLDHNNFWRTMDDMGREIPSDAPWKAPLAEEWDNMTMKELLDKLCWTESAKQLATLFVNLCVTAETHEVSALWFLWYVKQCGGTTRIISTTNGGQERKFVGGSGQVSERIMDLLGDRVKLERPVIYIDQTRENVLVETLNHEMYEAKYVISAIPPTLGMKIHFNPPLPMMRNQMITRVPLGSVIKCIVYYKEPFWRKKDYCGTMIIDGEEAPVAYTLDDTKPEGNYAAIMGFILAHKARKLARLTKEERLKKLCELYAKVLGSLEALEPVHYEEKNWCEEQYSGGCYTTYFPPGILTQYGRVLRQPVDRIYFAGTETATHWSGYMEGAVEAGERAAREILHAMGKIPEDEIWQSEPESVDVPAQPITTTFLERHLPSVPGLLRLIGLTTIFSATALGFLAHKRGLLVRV
As to the kind of experiment: Monoamine oxidase inhibition test (MAO-Glo assay kit). Type of assay: biochemical. The settings on record: room temperature, 1 hour.
Description: To the reaction liquid was added 50 μL of a luciferin detection reagent, and the mixture was subjected to a reaction at room temperature for 20 minutes.

As for `O=C(N[C@@H](CCCCNC1CC1c1ccccc1)C(=O)NCc1ccccc1)c1ccc(-c2ccccc2)cc1` (stereo partly drawn) [Example 8, 2-[N-(4-Phenylbenzenecarbonyl)]amino-6-(trans-2-phenylcyclopropan-1-amino)-N-benzylhexanamide Hydrochloride], the GI50 in the assay on KG1a was about 6.3 µM; in the assay with HL60, 4 to 5 µM; in assay [1], 4 to 5 µM; in the assay with MDS-L it was under 1.3 µM; in the assay with K562, 3.2 µM; in the assay with M7, about 6 µM. The GI50 was under 1.3 µM with HEL, under 2 µM in assay [2], 4.6 µM in the assay on U937 and 5 to 6 µM in the assay on THP1. Besides, the IC50 in [3] is over 100 µM.
Take `O=C(N[C@@H](CCCCNC1CC1c1ccccc1)C(=O)NCc1cccc(C(F)(F)F)c1)c1ccc(-c2ccccc2)cc1` (stereo partly drawn) [Example 19, 2-[N-(4-Phenylbenzenecarbonyl)]amino-6-(trans-2-phenylcyclopropan-1-amino)-N-(3-trifluoromethylbenzyl)hexanamide Hydrochloride]: the GI50 is 5 to 10 µM in the assay on KG1a; 2.5 to 5 µM in the assay on HL60; 2.5 to 5 µM in [1]; under 1.3 µM in the assay on MDS-L; about 5 µM in the assay with HEL; under 1.25 µM in assay [2]. Besides, the GI50 in the assay with U937 lay in the range of 10 to 20 µM; in the assay on THP1 it was 5 to 10 µM. For the same molecule, the IC50 in assay [3] is over 100 µM.
